Laboratory results published in patent US20140235689A1, “FUNGICIDAL PYRAZOLES” (E I DU PONT DE NEMOURS AND COMPANY, priority 2013, published 2014).

Tests used:
Format in all cases: in vivo
Alternaria solani = assay: Test B: tomato early blight, preventive spray on tomato seedlings; conditions: 200 ppm test suspension, inoculated following day, visual rating, relative to controls
Method: General protocol for preparing test suspensions for Tests A-D: the test compounds were first dissolved in acetone in an amount equal to 3% of the final volume and then suspended at the desired concentration (in ppm) in acetone and purified water (50/50 mix by volume) containing 250 ppm of the surfactant Trem® 014 (polyhydric alcohol esters). The resulting test suspensions were then used in Tests A-G. Each test was conducted in triplicate, and the results were averaged. Spraying a 200 ppm test suspension to the point of run-off on the test plants was the equivalent of a rate of 800 g/ha. Unless otherwise indicated, the rating values indicate a 200 ppm test suspension was used. (An asterisk “*” next to the rating value indicates a 40 ppm test suspension was used.) The test suspension was sprayed to the point of run-off on tomato seedlings. The following day the seedlings were inoculated with a spore suspension of Alternaria solani (the causal agent of tomato early blight) and incubated in a saturated atmosphere at 27° C. for 48 h, and then moved to a growth chamber at 20° C. for 5 days, after which time visual disease ratings were made. Results for Tests A-G are given in Table A. In the Table, a rating of 100 indicates 100% disease control and a rating of 0 indicates no disease control (relative to the controls). A hyphen (-) indicates no test results.

Septoria nodorum = assay: Test C: Septoria glume blotch, preventive spray on wheat seedlings; conditions: 200 ppm test suspension, inoculated following day, visual rating, relative to controls
Method: General protocol for preparing test suspensions for Tests A-D: the test compounds were first dissolved in acetone in an amount equal to 3% of the final volume and then suspended at the desired concentration (in ppm) in acetone and purified water (50/50 mix by volume) containing 250 ppm of the surfactant Trem® 014 (polyhydric alcohol esters). The resulting test suspensions were then used in Tests A-G. Each test was conducted in triplicate, and the results were averaged. Spraying a 200 ppm test suspension to the point of run-off on the test plants was the equivalent of a rate of 800 g/ha. Unless otherwise indicated, the rating values indicate a 200 ppm test suspension was used. (An asterisk “*” next to the rating value indicates a 40 ppm test suspension was used.) The test suspension was sprayed to the point of run-off on wheat seedlings. The following day the seedlings were inoculated with a spore suspension of Septoria nodorum (the causal agent of Septoria glume blotch) and incubated in a saturated atmosphere at 24° C. for 48 h, and then moved to a growth chamber at 20° C. for 9 days, after which time visual disease ratings were made. Results for Tests A-G are given in Table A. In the Table, a rating of 100 indicates 100% disease control and a rating of 0 indicates no disease control (relative to the controls). A hyphen (-) indicates no test results.

Septoria tritici = assay: Test D: wheat leaf blotch, preventive spray on wheat seedlings; conditions: 200 ppm test suspension, inoculated following day, visual rating, relative to controls
Method: General protocol for preparing test suspensions for Tests A-D: the test compounds were first dissolved in acetone in an amount equal to 3% of the final volume and then suspended at the desired concentration (in ppm) in acetone and purified water (50/50 mix by volume) containing 250 ppm of the surfactant Trem® 014 (polyhydric alcohol esters). The resulting test suspensions were then used in Tests A-G. Each test was conducted in triplicate, and the results were averaged. Spraying a 200 ppm test suspension to the point of run-off on the test plants was the equivalent of a rate of 800 g/ha. Unless otherwise indicated, the rating values indicate a 200 ppm test suspension was used. (An asterisk “*” next to the rating value indicates a 40 ppm test suspension was used.) The test suspension was sprayed to the point of run-off on wheat seedlings. The following day the seedlings were inoculated with a spore suspension of Septoria tritici (the causal agent of wheat leaf blotch) and incubated in saturated atmosphere at 24° C. for 48 h. and then the seedlings were moved to a growth chamber at 20° C. for 19 additional days, after which time visual disease ratings were made. Results for Tests A-G are given in Table A. In the Table, a rating of 100 indicates 100% disease control and a rating of 0 indicates no disease control (relative to the controls). A hyphen (-) indicates no test results.

[1] = test system: Puccinia recondita f. sp. tritici; assay: Test E: wheat leaf rust, spray after inoculation (curative) on wheat seedlings; conditions: 200 ppm test suspension, wheat seedlings sprayed after inoculation, visual rating, relative to controls
Method: General protocol for preparing test suspensions for Tests A-D: the test compounds were first dissolved in acetone in an amount equal to 3% of the final volume and then suspended at the desired concentration (in ppm) in acetone and purified water (50/50 mix by volume) containing 250 ppm of the surfactant Trem® 014 (polyhydric alcohol esters). The resulting test suspensions were then used in Tests A-G. Each test was conducted in triplicate, and the results were averaged. Spraying a 200 ppm test suspension to the point of run-off on the test plants was the equivalent of a rate of 800 g/ha. Unless otherwise indicated, the rating values indicate a 200 ppm test suspension was used. (An asterisk “*” next to the rating value indicates a 40 ppm test suspension was used.) Wheat seedlings were inoculated with a spore suspension of Puccinia recondita f. sp. tritici (the causal agent of wheat leaf rust) and incubated in a saturated atmosphere at 20° C. for 24 h, and then moved to a growth chamber at 20° C. for 2 days. After 2 days, the test suspension was sprayed to the point of run-off on the wheat seedlings, and then the seedlings were moved back to the growth chamber at 20° C. for 4 days. Upon removal, visual disease ratings were made. […]

[2] = test system: Puccinia recondita f. sp. tritici; assay: Test F: wheat leaf rust, preventive spray on wheat seedlings; conditions: 200 ppm test suspension, inoculated following day, visual rating, relative to controls
Method: General protocol for preparing test suspensions for Tests A-D: the test compounds were first dissolved in acetone in an amount equal to 3% of the final volume and then suspended at the desired concentration (in ppm) in acetone and purified water (50/50 mix by volume) containing 250 ppm of the surfactant Trem® 014 (polyhydric alcohol esters). The resulting test suspensions were then used in Tests A-G. Each test was conducted in triplicate, and the results were averaged. Spraying a 200 ppm test suspension to the point of run-off on the test plants was the equivalent of a rate of 800 g/ha. Unless otherwise indicated, the rating values indicate a 200 ppm test suspension was used. (An asterisk “*” next to the rating value indicates a 40 ppm test suspension was used.) The test suspension was sprayed to the point of run-off on wheat seedlings. The following day the seedlings were inoculated with a spore suspension of Puccinia recondita f. sp. tritici (the causal agent of wheat leaf rust) and incubated in a saturated atmosphere at 20° C. for 24 h, and then moved to a growth chamber at 20° C. for 6 days, after which time visual disease ratings were made. Results for Tests A-G are given in Table A. In the Table, a rating of 100 indicates 100% disease control and a rating of 0 indicates no disease control (relative to the controls). A hyphen (-) indicates no test results.

[3] = test system: Blumeria graminis f. sp. tritici; assay: Test G: wheat powdery mildew, preventive spray on wheat seedlings; conditions: 200 ppm test suspension, inoculated following day with spore dust, visual rating, relative to controls
Method: General protocol for preparing test suspensions for Tests A-D: the test compounds were first dissolved in acetone in an amount equal to 3% of the final volume and then suspended at the desired concentration (in ppm) in acetone and purified water (50/50 mix by volume) containing 250 ppm of the surfactant Trem® 014 (polyhydric alcohol esters). The resulting test suspensions were then used in Tests A-G. Each test was conducted in triplicate, and the results were averaged. Spraying a 200 ppm test suspension to the point of run-off on the test plants was the equivalent of a rate of 800 g/ha. Unless otherwise indicated, the rating values indicate a 200 ppm test suspension was used. (An asterisk “*” next to the rating value indicates a 40 ppm test suspension was used.) The test suspension was sprayed to the point of run-off on wheat seedlings. The following day the seedlings were inoculated with a spore dust of Blumeria graminis f. sp. tritici (also known as Erysiphe graminis f. sp. tritici, the causal agent of wheat powdery mildew) and incubated in a growth chamber at 20° C. for 8 days, after which time visual disease ratings were made. Results for Tests A-G are given in Table A. In the Table, a rating of 100 indicates 100% disease control and a rating of 0 indicates no disease control (relative to the controls). A hyphen (-) indicates no test results.

Botrytis cinerea = assay: Test A: tomato Botrytis, preventive spray on tomato seedlings; conditions: 200 ppm test suspension, inoculated following day, visual rating, relative to controls
Method: General protocol for preparing test suspensions for Tests A-D: the test compounds were first dissolved in acetone in an amount equal to 3% of the final volume and then suspended at the desired concentration (in ppm) in acetone and purified water (50/50 mix by volume) containing 250 ppm of the surfactant Trem® 014 (polyhydric alcohol esters). The resulting test suspensions were then used in Tests A-G. Each test was conducted in triplicate, and the results were averaged. Spraying a 200 ppm test suspension to the point of run-off on the test plants was the equivalent of a rate of 800 g/ha. Unless otherwise indicated, the rating values indicate a 200 ppm test suspension was used. (An asterisk “*” next to the rating value indicates a 40 ppm test suspension was used.) The test suspension was sprayed to the point of run-off on tomato seedlings. The following day the seedlings were inoculated with a spore suspension of Botrytis cinerea (the causal agent of tomato Botrytis) and incubated in saturated atmosphere at 20° C. for 48 h, and then moved to a growth chamber at 24° C. for 3 additional days, after which time visual disease ratings were made. Results for Tests A-G are given in Table A. In the Table, a rating of 100 indicates 100% disease control and a rating of 0 indicates no disease control (relative to the controls). A hyphen (-) indicates no test results.

| SMILES | Test B disease control rating (100 = 100% disease control, 0 = no disease control) (Alternaria solani) | Test C disease control rating (100 = 100% disease control, 0 = no disease control) (Septoria nodorum) | Test D disease control rating (100 = 100% disease control, 0 = no disease control) (Septoria tritici) | Test E disease control rating (100 = 100% disease control, 0 = no disease control) [1] | Test F disease control rating (100 = 100% disease control, 0 = no disease control) [2] | Test G disease control rating (100 = 100% disease control, 0 = no disease control) [3] | Test A disease control rating (100 = 100% disease control, 0 = no disease control) (Botrytis cinerea) |
| --- | --- | --- | --- | --- | --- | --- | --- |
| CNC(c1ccc(F)cc1F)c1c(-c2c(F)cccc2F)c(C)nn1C (stereo not drawn) [Compound 2, α-(2,4-difluorophenyl)-4-(2,6-difluorophenyl)-N,1,3-trimethyl-1H-pyrazol-5-methanamine] | 0 | 0 | 99 | 0 | 0 | 82 |  |
| Cc1nn(C)c(C(N)c2ccc(F)cc2F)c1-c1c(F)cccc1F (stereo not drawn) [Compound 3, α-(2,4-difluorophenyl)-4-(2,6-difluorophenyl)-1,3-dimethyl-1H-pyrazol-5-methanamine] |  |  | 100 |  | 99 | 98 | 98 |
| CSC(c1ccc(F)cc1F)c1c(-c2c(F)cccc2F)c(C)nn1C (centres unmarked) [Compound 4, 4-(2,6-difluorophenyl)-5-[(2,4-difluorophenyl)(methylthio)methyl]-1,3-dimethyl-1H-pyrazole] | 0 | 0 | 99 | 9 | 85 | 82 | 31 |
